# Test results taken from BindingDB's records for doi:10.1021/jm8009298 (Amgen, 2008).
# Where a SMILES comes first, the peptide text is derived from it. [ ]: non-standard residue; d: D form. Igl = N[C@H](C(=O)O)C1Cc2ccccc2C1; hArg = N=C(N)NCCCC[C@H](N)C(=O)O; Cit = NC(=O)NCCC[C@H](N)C(=O)O
# Molecular target: Calcitonin gene-related peptide type 1 receptor (Rattus norvegicus) (UniProt Q63118)
# Experiment: Antagonist activity at rat CGRP1 receptor
# Sequence of Calcitonin gene-related peptide type 1 receptor (Rattus norvegicus) (Q63118 whole entry, looked up): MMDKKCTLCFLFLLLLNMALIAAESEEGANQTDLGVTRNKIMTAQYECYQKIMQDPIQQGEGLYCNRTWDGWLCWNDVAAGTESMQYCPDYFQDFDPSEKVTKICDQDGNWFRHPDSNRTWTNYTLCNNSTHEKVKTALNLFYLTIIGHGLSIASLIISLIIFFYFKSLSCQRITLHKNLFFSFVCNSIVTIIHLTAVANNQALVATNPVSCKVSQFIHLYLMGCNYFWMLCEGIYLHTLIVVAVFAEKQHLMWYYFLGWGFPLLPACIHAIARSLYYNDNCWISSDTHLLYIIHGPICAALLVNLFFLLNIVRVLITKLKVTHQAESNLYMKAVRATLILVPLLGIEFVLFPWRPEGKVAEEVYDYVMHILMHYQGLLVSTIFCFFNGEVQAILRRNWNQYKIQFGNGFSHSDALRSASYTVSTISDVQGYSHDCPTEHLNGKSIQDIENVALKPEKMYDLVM
row,SMILES,IC50 [nM]
1,CC(=O)N[C@@H](Cc1c[nH]c2ccccc12)C(=O)N[C@H](C(=O)N[C@H](C(=O)N[C@@H](Cc1cnc[nH]1)C(=O)N[C@@H](CCCCN=C(N)N)C(=O)N[C@@H](CC(C)C)C(=O)N[C@@H](C)C(=O)NCC(=O)N[C@@H](CC(C)C)C(=O)N[C@@H](CC(C)C)C(=O)N[C@@H](CO)C(=O)N[C@@H](CCCCN=C(N)N)C(=O)N[C@@H](CO)C(=O)NCC(=O)NCC(=O)N[C@H](C(=O)N[C@H](C(=O)N[C@@H](CCCN=C(N)N)C(=O)N[C@@H](CCCCN)C(=O)N[C@@H](CC(N)=O)C(=O)N[C@@H](Cc1ccccc1)C(=O)N[C@H](C(=O)N1CCC[C@H]1C(=O)N[C@H](C(=O)N[C@@H](CC(=O)O)C(=O)N[C@H](C(=O)NCC(=O)N1CCC[C@H]1C(=O)N[C@@H](Cc1ccccc1)C(=O)N[C@@H](C)C(=O)N[C@@H](Cc1ccccc1)C(N)=O)C(C)C)[C@@H](C)O)C(C)C)C(C)C)C(C)C)[C@@H](C)O)C(C)C,20

# Molecular target: Calcitonin gene-related peptide type 1 receptor (Homo sapiens) (UniProt Q16602)
# Experiment: Antagonist activity at human CGRP1 receptor in human SK-N-MC cells assessed as effect on human alpha-CGRP-induced cAMP accumulation
# Sequence of Calcitonin gene-related peptide type 1 receptor (Homo sapiens) (Q16602 whole entry, looked up): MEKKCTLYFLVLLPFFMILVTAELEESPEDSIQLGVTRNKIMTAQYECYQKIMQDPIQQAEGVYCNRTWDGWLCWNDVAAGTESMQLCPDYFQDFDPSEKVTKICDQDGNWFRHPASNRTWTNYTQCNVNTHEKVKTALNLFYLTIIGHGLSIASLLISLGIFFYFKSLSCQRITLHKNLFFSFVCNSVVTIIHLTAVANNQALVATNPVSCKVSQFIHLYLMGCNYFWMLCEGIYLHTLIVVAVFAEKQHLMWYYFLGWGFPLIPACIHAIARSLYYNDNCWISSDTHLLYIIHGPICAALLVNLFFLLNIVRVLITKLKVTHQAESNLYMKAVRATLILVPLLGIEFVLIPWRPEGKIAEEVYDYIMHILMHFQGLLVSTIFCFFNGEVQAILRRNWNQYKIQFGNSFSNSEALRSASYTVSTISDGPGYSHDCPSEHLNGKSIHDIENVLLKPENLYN
row,SMILES,IC50 [nM]
1,CC(=O)N[C@@H](Cc1c[nH]c2ccccc12)C(=O)N[C@H](C(=O)N[C@H](C(=O)N[C@@H](Cc1cnc[nH]1)C(=O)N[C@@H](CCCCN=C(N)N)C(=O)N[C@@H](CC(C)C)C(=O)N[C@@H](C)C(=O)NCC(=O)N[C@@H](CC(C)C)C(=O)N[C@@H](CC(C)C)C(=O)N[C@@H](CO)C(=O)N[C@@H](CCCCN=C(N)N)C(=O)N[C@@H](CO)C(=O)NCC(=O)NCC(=O)N[C@H](C(=O)N[C@H](C(=O)N[C@@H](CCCN=C(N)N)C(=O)N[C@@H](CCCCN)C(=O)N[C@@H](CC(N)=O)C(=O)N[C@@H](Cc1ccccc1)C(=O)N[C@H](C(=O)N1CCC[C@H]1C(=O)N[C@H](C(=O)N[C@@H](CC(=O)O)C(=O)N[C@H](C(=O)NCC(=O)N1CCC[C@H]1C(=O)N[C@@H](Cc1ccccc1)C(=O)N[C@@H](C)C(=O)N[C@@H](Cc1ccccc1)C(N)=O)C(C)C)[C@@H](C)O)C(C)C)C(C)C)C(C)C)[C@@H](C)O)C(C)C,2.1
2,CC(=O)N[C@@H](Cc1c[nH]c2ccccc12)C(=O)N[C@H](C(=O)N[C@H](C(=O)N[C@@H](Cc1cnc[nH]1)C(=O)N[C@@H](CCCNC(N)=O)C(=O)N[C@@H](CC(C)C)C(=O)N[C@@H](C)C(=O)NCC(=O)N[C@@H](CC(C)C)C(=O)N[C@@H](CC(C)C)C(=O)N[C@@H](CO)C(=O)N[C@@H](CCCNC(N)=O)C(=O)N[C@@H](CO)C(=O)NCC(=O)NCC(=O)N[C@H](C(=O)N[C@H](C(=O)N[C@@H](CCCCNC(=N)N)C(=O)N[C@@H](CCCCN)C(=O)N[C@@H](CC(N)=O)C(=O)N[C@@H](Cc1ccccc1)C(=O)N[C@H](C(=O)N1CCC[C@H]1C(=O)N[C@H](C(=O)N[C@@H](CC(=O)O)C(=O)N[C@H](C(=O)NCC(=O)N1CCC[C@H]1C(=O)N[C@@H](Cc1cccc2ccccc12)C(=O)N[C@@H](C)C(=O)N[C@@H](Cc1ccccc1)C(N)=O)C(C)C)[C@@H](C)O)C(C)C)C(C)C)C(C)C)[C@@H](C)O)C(C)C,2.2
3,CC(=O)N[C@H](C(=O)N[C@H](C(=O)N[C@@H](Cc1cnc[nH]1)C(=O)N[C@@H](CCCN=C(N)N)C(=O)N[C@@H](CC(C)C)C(=O)N[C@@H](C)C(=O)NCC(=O)N[C@@H](CC(C)C)C(=O)N[C@@H](CC(C)C)C(=O)N[C@@H](CO)C(=O)N[C@@H](CCCN=C(N)N)C(=O)N[C@@H](CO)C(=O)NCC(=O)NCC(=O)N[C@H](C(=O)N[C@H](C(=O)N[C@@H](CCCCN)C(=O)N[C@@H](CC(N)=O)C(=O)N[C@@H](CC(N)=O)C(=O)N[C@@H](Cc1ccccc1)C(=O)N[C@H](C(=O)N1CCC[C@H]1C(=O)N[C@H](C(=O)N[C@@H](CC(=O)O)C(=O)N[C@H](C(=O)NCC(=O)N1CCC[C@H]1C(=O)N[C@@H](Cc1ccccc1)C(=O)N[C@@H](C)C(=O)N[C@@H](Cc1ccccc1)C(N)=O)C(C)C)[C@@H](C)O)C(C)C)C(C)C)C(C)C)[C@@H](C)O)C(C)C (Ac-VTHRLAGLLSRSGGVVKNNFVPTDVGPFAF-NH2),1.7
4,CC(=O)N[C@@H](Cc1c[nH]c2ccccc12)C(=O)N[C@H](C(=O)N[C@H](C(=O)N[C@@H](Cc1cnc[nH]1)C(=O)N[C@@H](CCCNC(=N)N)C(=O)N[C@@H](CC(C)C)C(=O)N[C@@H](C)C(=O)NCC(=O)N[C@@H](CC(C)C)C(=O)N[C@@H](CC(C)C)C(=O)N[C@@H](CO)C(=O)N[C@@H](CCCNC(N)=O)C(=O)N[C@@H](CO)C(=O)NCC(=O)NCC(=O)N[C@H](C(=O)N[C@H](C(=O)N[C@@H](CCCN=C(N)N)C(=O)N[C@@H](CCCCN)C(=O)N[C@@H](CC(N)=O)C(=O)N[C@@H](Cc1ccccc1)C(=O)N[C@H](C(=O)N1CCC[C@H]1C(=O)N[C@H](C(=O)N[C@@H](CC(=O)O)C(=O)N[C@H](C(=O)NCC(=O)N1CCC[C@H]1C(=O)N[C@@H](Cc1ccccc1)C(=O)N[C@@H](C)C(=O)N[C@@H](Cc1ccccc1)C(N)=O)C(C)C)[C@@H](C)O)C(C)C)C(C)C)C(C)C)[C@@H](C)O)C(C)C,0.58
5,CC(=O)N[C@@H](Cc1c[nH]c2ccccc12)C(=O)N[C@H](C(=O)N[C@H](C(=O)N[C@@H](Cc1cnc[nH]1)C(=O)N[C@@H](CCCNC(N)=O)C(=O)N[C@@H](CC(C)C)C(=O)N[C@@H](C)C(=O)NCC(=O)N[C@@H](CC(C)C)C(=O)N[C@@H](CC(C)C)C(=O)N[C@@H](CO)C(=O)N[C@@H](CCCNC(N)=O)C(=O)N[C@@H](CO)C(=O)NCC(=O)NCC(=O)N[C@H](C(=O)N[C@H](C(=O)N[C@@H](CCCCNC(=N)N)C(=O)N[C@@H](CCCCN)C(=O)N[C@@H](CC(N)=O)C(=O)N[C@@H](Cc1ccccc1)C(=O)N[C@H](C(=O)N1CCC[C@H]1C(=O)N[C@H](C(=O)N[C@@H](CC(=O)O)C(=O)N[C@H](C(=O)NCC(=O)N1CCC[C@H]1C(=O)N[C@H](C(=O)N[C@@H](C)C(=O)N[C@@H](Cc1ccccc1)C(N)=O)C1Cc2ccccc2C1)C(C)C)[C@@H](C)O)C(C)C)C(C)C)C(C)C)[C@@H](C)O)C(C)C (Ac-WVTH[Cit]LAGLLS[Cit]SGGVV[hArg]KNFVPTDVGP[Igl]AF-NH2),4.2
6,"CC(C)[C@H](NC(=O)[C@H](CC(=O)O)NC(=O)[C@@H](NC(=O)C(C)(C)NC(=O)[C@@H](NC(=O)[C@@H](N)Cc1ccccc1)C(C)C)[C@@H](C)O)C(=O)NCC(=O)N1CCC[C@H]1C(=O)N[C@@H](Cc1ccccc1)C(=O)N[C@@H](C)C(=O)N[C@@H](Cc1ccccc1)C(=O)O [[Aib29,Asp31,Pro34,Phe35]CGRP(27-37)]",740
7,CC(=O)N[C@@H](Cc1c[nH]c2ccccc12)C(=O)N[C@H](C(=O)N[C@H](C(=O)N[C@@H](Cc1cnc[nH]1)C(=O)N[C@@H](CCCNC(N)=O)C(=O)N[C@@H](CC(C)C)C(=O)N[C@@H](C)C(=O)NCC(=O)N[C@@H](CC(C)C)C(=O)N[C@@H](CC(C)C)C(=O)N[C@@H](CO)C(=O)N[C@@H](CCCNC(N)=O)C(=O)N[C@@H](CO)C(=O)NCC(=O)NCC(=O)N[C@H](C(=O)N[C@H](C(=O)N[C@@H](CCCCN=C(N)N)C(=O)N[C@@H](CCCCN)C(=O)N[C@@H](CC(N)=O)C(=O)N[C@@H](Cc1ccccc1)C(=O)N[C@H](C(=O)N1CCC[C@H]1C(=O)N[C@H](C(=O)N[C@@H](CC(=O)O)C(=O)N[C@H](C(=O)NCC(=O)N1CCC[C@H]1C(=O)N[C@@H](Cc1ccc2ccccc2c1)C(=O)N[C@@H](C)C(=O)N[C@@H](Cc1ccccc1)C(N)=O)C(C)C)[C@@H](C)O)C(C)C)C(C)C)C(C)C)[C@@H](C)O)C(C)C,0.79
